Biological target: T1, human MRGPRX2 (Homo sapiens, UniProt Q96LB1)
T1 construct: expressed in transfected cells; host or cells: FlpIn TRex HEK293 (TRex-MRGPRX2-HEK), doxycycline-induced
T1 sequence (Q96LB1 1-330): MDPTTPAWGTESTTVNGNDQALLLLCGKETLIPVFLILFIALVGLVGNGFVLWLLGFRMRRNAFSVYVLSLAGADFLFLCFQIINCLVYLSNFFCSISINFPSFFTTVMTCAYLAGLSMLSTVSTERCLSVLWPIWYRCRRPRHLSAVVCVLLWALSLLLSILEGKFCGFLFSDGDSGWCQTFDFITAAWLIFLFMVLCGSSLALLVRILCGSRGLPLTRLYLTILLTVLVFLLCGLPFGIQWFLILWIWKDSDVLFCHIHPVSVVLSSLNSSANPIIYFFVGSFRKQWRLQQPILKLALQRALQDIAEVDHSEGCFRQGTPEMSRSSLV
Assay: MRGPRX2 Activity Assay (IP-1 HTRF, antagonist mode)
Assay type: cell-based
Settings: FlpIn TRex-MRGPRX2-HEK293 cells; versus 1 μM Cortistatin-14 agonist; 30 minutes preincubation
Description: FlpIn TRex-MRGPRX2-HEK293 cells (herein TRex-MRPGRX2-HEK) stably transfected to express human MRGPRX2 were maintained at 37° C. with 5% CO2 and grown in DMEM supplemented with 10% FBS, 1% L-Glutamate, 1% penicillin/streptomycin, 100 ug/mL Hygromycin B, and 15 ug/mL Blasticidin.
GOI (MRGPRX2) expression was induced with 100 ng/mL of Doxycycline 18-24 hours prior to experiment, in flask. On the day of experiment, cells were lifted with TripLE Express and seeded in 384-well white walled opaque bottomed, assay plates, at 8,000 cells per well in 5 uL freshly made assay buffer (HBSS, 20 mM HEPES, 0.1% BSA and 10 mM LiCl). Compounds solubilized in 100% DMSO at 30 mM were serially diluted (1:4) first in 100% DMSO, and an intermediate plate of assay buffer was used to establish a final top concentration of 30 uM (in assay plate). Final DMSO concentration was kept constant at 1% across assay plates. […], at 30 mM stock concentration was solubilized in HBSS+0.1% BSA, stored at −20° C. in 5 μL aliquots and discarded after one freeze-thaw cycle. […].
Antagonist equilibrium was established with 30 minutes preincubation, followed by no wash, direct addition, and stimulation of agonist for 1 hour at 37° C./5% CO2. IP-1 standards and HTRF detection reagents were added according to the IP-one Gq kit protocol purchased from CisBio (part number 62IPAPEJ). The plate was read on an EnVision XCite plate reader. The HTRF ratio was then calculated from raw data (channel1/channel2×10,000) and analyzed using either GraphPad Prism or a custom Python script to calculate IC50 using Log[Antagonist] vs. response (4 parameter) nonlinear regression.

| Molecule | IC50 [nM] |
| --- | --- |
| (S)-2-((S)-4,4-difluoro-3-(6-oxo-1,6-dihydropyridin-3-yl)piperidin-1-yl)-N-(1-(3,5-difluorobenzyl)-1H-imidazol-4-yl)propanamide [Compound 76] | 2220 |
| C[C@@H](C(=O)Nc1cn(Cc2cccc(Cl)c2F)cn1)N1CCC(F)(F)[C@@H](c2cc[n+]([O-])cc2)C1 [Compound 64, 4-((S)-1-((S)-1-((1-(3-chloro-2-fluorobenzyl)-1H-imidazol-4-yl)amino)-1-oxopropan-2-yl)-4,4-difluoropiperidin-3-yl)pyridine 1-oxide] | 78 |
| Cc1nc(NC(=O)[C@@H](C)N2CCC(F)(F)[C@@H](c3cc[n+]([O-])cc3)C2)cn1Cc1cc(F)cc(F)c1 (single isomer, unassigned) [Compound 20] | 193 |
| C[C@H](C(=O)Nc1cn(Cc2cc(F)cc(F)c2)cn1)N1CCC(F)(F)[C@H](c2c[nH]c(=O)c(CO)c2)C1 (single isomer, unassigned) [Compound 74] | > 30000 |
| C[C@@H](C(=O)Nc1cn(Cc2cccc(F)c2F)cn1)N1CCC(F)(F)[C@@H](c2cc[n+]([O-])cc2)C1 [Compound 49, 4-((S)-1-((S)-1-((1-(2,3-difluorobenzyl)-1H-imidazol-4-yl)amino)-1-oxopropan-2-yl)-4,4-difluoropiperidin-3-yl)pyridine 1-oxide] | 53 |
| C[C@@H](C(=O)Nc1cn(Cc2cccc(F)c2)cn1)N1CCC(F)(F)[C@@H](c2cc[n+]([O-])cc2)C1 [Compound 38, 4-((S)-4,4-difluoro-1-((S)-1-((1-(3-fluorobenzyl)-1H-imidazol-4-yl)amino)-1-oxopropan-2-yl)piperidin-3-yl)pyridine 1-oxide] | 93 |
| C[C@@H](C(=O)Nc1cn2c(n1)CC[C@@H]2c1cc(F)cc(F)c1)N1CCC(F)(F)[C@H](c2ccc(=O)[nH]c2)C1 (single isomer, unassigned) [Compound 495] | > 30000 |
| C[C@@H](C(=O)Nc1cc2n(n1)CC[C@H]2c1cc(F)cc(F)c1)N1CCC(F)(F)[C@@H](c2cc[n+]([O-])cc2)C1 (single isomer, unassigned) [Compound 550] | 6 |
| C[C@@H](C(=O)Nc1cn(Cc2cc(F)cc(F)c2)cn1)N1CCC(F)(F)[C@@H](c2ccc(=O)n(C)c2)C1 (single isomer, unassigned) [Compound 67] | 4330 |
| C[C@H](C(=O)Nc1cn(Cc2ccc(F)cc2F)c(C(F)(F)F)n1)N1CCC(F)(F)[C@@H](c2cc[n+]([O-])cc2)C1 (single isomer, unassigned) [Compound 8] | 9290 |
| C[C@@H](C(=O)Nc1coc(Cc2cc(F)cc(F)c2)n1)N1CCC(F)(F)[C@@H](c2cc[n+]([O-])cc2)C1 (single isomer, unassigned) [Compound 27] | 587 |
| C[C@@H](C(=O)Nc1cn(Cc2cc(F)c(F)c(F)c2F)cn1)N1CCC(F)(F)[C@@H](c2cc[n+]([O-])cc2)C1 [Compound 32, 4-[(3S)-4,4-difluoro-1-[(1S)-1-({1-[(2,3,4,5-tetrafluorophenyl)methyl]imidazol-4-yl}carbamoyl)ethyl]piperidin-3-yl]pyridin-1-ium-1-olate] | 104 |
| C[C@@H](C(=O)Nc1cn2c(n1)CC[C@@H]2c1cc(F)cc(F)c1)N1CCC(F)(F)[C@H](c2c[nH]c(=O)c(CO)c2)C1 (single isomer, unassigned) [Compound 524] | 50 |
| C[C@@H](C(=O)Nc1cn(Cc2cc(F)c(F)cc2F)cn1)N1CCC(F)(F)[C@@H](c2cc[n+]([O-])cc2)C1 [Compound 65, 4-((S)-4,4-difluoro-1-((S)-1-oxo-1-((1-(2,4,5-trifluorobenzyl)-1H-imidazol-4-yl)amino)propan-2-yl)piperidin-3-yl)pyridine 1-oxide] | 504 |
| C[C@H](C(=O)Nc1cn([C@H](C)c2cc(F)cc(F)c2)cn1)N1CCC(F)(F)[C@@H](c2cc[n+]([O-])cc2)C1 (single isomer, unassigned) [Compound 16] | > 10000 |
| C[C@@H](C(=O)Nc1cn(Cc2cc(F)ccc2F)cn1)N1CCC(F)(F)[C@@H](c2cc[n+]([O-])cc2)C1 [Compound 40, 4-((S)-1-((S)-1-((1-(2,5-difluorobenzyl)-1H-imidazol-4-yl)amino)-1-oxopropan-2-yl)-4,4-difluoropiperidin-3-yl)pyridine 1-oxide] | 25 |
| C[C@@H](C(=O)Nc1cn2c(n1)[C@@H](O)C[C@@H]2c1cc(F)cc(F)c1)N1CCC(F)(F)[C@@H](c2ccc(=O)[nH]c2)C1 (single isomer, unassigned) [Compound 516] | > 30000 |

| Molecule | IC50 [nM] |
| --- | --- |
| C[C@@H](C(=O)Nc1cn(Cc2cc(F)cc(F)c2)c(C(F)F)n1)N1CCC(F)(F)[C@H](c2c[nH]c(=O)c(CO)c2)C1 (single isomer, unassigned) [Compound 491] | 1640 |
| C[C@@H](C(=O)Nc1cn2c(n1)[C@H](O)C[C@@H]2c1cc(F)cc(F)c1)N1CCC(F)(F)[C@@H](c2ccc(=O)[nH]c2)C1 (single isomer, unassigned) [Compound 515] | 4600 |
| C[C@H](C(=O)Nc1cn2c(n1)CC[C@H]2c1cc(F)cc(F)c1)N1CCC(F)(F)[C@@H](c2cc[n+]([O-])cc2)C1 (single isomer, unassigned) [Compound 486] | 1180 |
| C[C@@H](C(=O)Nc1cn2c(n1)CC[C@@H]2c1cc(F)cc(F)c1)N1CCC2(CC2)[C@H](c2cc[n+]([O-])cc2)C1 (single isomer, unassigned) [Compound 522] | 229 |
| (R)-2-((S)-4,4-difluoro-3-(6-oxo-1,6-dihydropyridin-3-yl)piperidin-1-yl)-N-(1-(3,5-difluorobenzyl)-1H-imidazol-4-yl)propanamide [Compound 79] | 18100 |
| C[C@@H](C(=O)Nc1cn(Cc2cc(F)cc(F)c2)c(C(F)(F)F)n1)N1CCC(F)(F)[C@@H](c2cc[n+]([O-])cc2)C1 (single isomer, unassigned) [Compound 25] | > 10000 |
| C[C@@H](C(=O)Nc1cn(Cc2cc(F)cc(F)c2)cn1)N1CCC(F)(F)[C@@H](c2ccc(=O)[nH]c2)C1 (single isomer, unassigned) [Compound 54] | 432 |
| Cc1nc(NC(=O)[C@@H](C)N2CCC(F)(F)CC2)cn1Cc1cc(F)cc(F)c1 (single isomer, unassigned) [Compound 22] | 124 |
| (2S)-2-[(3R)-4,4-difluoro-3-(1-methyl-6-oxopyridin-3-yl)piperidin-1-yl]-N-{1-[(3,5-difluorophenyl)methyl]imidazol-4-yl}propanamide [Compound 78] | > 30000 |
| C[C@@H](C(=O)Nc1cn2c(n1)CC[C@@H]2c1cc(F)cc(F)c1)N1CCCCC1 (single isomer, unassigned) [Compound 497] | > 30000 |
| CNCc1cc(C2CN([C@@H](C)C(=O)Nc3cn4c(n3)CC[C@@H]4c3cc(F)cc(F)c3)CCC2(F)F)c[nH]c1=O (stereo partly drawn) [Compound 529, (2S)-2-(4,4-difluoro-3-(5-((methylamino)methyl)-6-oxo-1,6-dihydropyridin-3-yl)piperidin-1-yl)-N—((R)-5-(3,5-difluorophenyl)-6,7-dihydro-5H-pyrrolo[1,2-a]imidazol-2-yl)propanamide] | 80 |
| C[C@@H](C(=O)Nc1cn(Cc2ccc(Cl)cc2F)cn1)N1CCC(F)(F)[C@@H](c2cc[n+]([O-])cc2)C1 [Compound 31, 4-((S)-1-((S)-1-((1-(4-chloro-2-fluorobenzyl)-1H-imidazol-4-yl)amino)-1-oxopropan-2-yl)-4,4-difluoropiperidin-3-yl)pyridine 1-oxide] | 361 |
| C[C@@H](C(=O)Nc1cn2c(n1)CC[C@H]2c1cc(F)cc(F)c1)N1CCC(F)(F)[C@@H](c2cc[n+]([O-])cc2)C1 (single isomer, unassigned) [Compound 487] | 13800 |
| C[C@@H](C(=O)Nc1cn(Cc2ccc(F)c(F)c2)cn1)N1CCC(F)(F)[C@@H](c2cc[n+]([O-])cc2)C1 [Compound 46, 4-((S)-1-((S)-1-((1-(3,4-difluorobenzyl)-1H-imidazol-4-yl)amino)-1-oxopropan-2-yl)-4,4-difluoropiperidin-3-yl)pyridine 1-oxide] | 210 |
| C[C@@H](C(=O)Nc1cn(Cc2cc(F)cc(F)c2)c(CF)n1)N1CCC(F)(F)[C@@H](c2cc[n+]([O-])cc2)C1 (single isomer, unassigned) [Compound 60] | > 30000 |
| C[C@@H](C(=O)Nc1cn2c(n1)CC[C@@H]2c1cc(F)cc(F)c1)N1CCC(F)(F)[C@](C)(c2cc[n+]([O-])cc2)C1 (single isomer, unassigned) [Compound 520] | 129 |

— patent US20250122171A1, “Substituted Amine Compounds, Compositions and Methods of Use” (Deep Apple Therapeutics, Inc., priority 2023, published 2025)
